The values below come from patent publication US20140154337A1, “ANTIMICROBIAL AGENTS AND METHODS FOR USE THEREOF IN THE ABATEMENT OF FOOD BORNE PATHOGENIC ORGANISMS” (priority 2011, published 2014).

The test system of the experiment is Escherichia coli ATCC strain number 8739. Description: Enteral antimicrobial laboratory evaluation: inoculated tryptic soy agar plates sprayed with test mixture, enumerated after three days. The format is cell-based. The following applies: TSA plates sprayed, phosphoric acid added to pH approximately 3.2 simulating mammalian stomach.

Protocol: In particular, testing was conducted as follows:
Six (6) identical conventional tryptic soy agar (“TSA”) plates were inoculated with Escherichia coli of the ATCC strain number 8739, which, as previously discussed, is a feces derived strain typical of that expected in the applications of the present invention.
The inoculated plates were then separated into three (3) groups of two (2) plates each, which groups were treated as follows: • a. […] Group III was sprayed with purified water only (in order to establish a negative control for the evaluation).

For the compound `O=P(O)(O)O` [phosphoric acid solution, phosphoric acid], the “growth of Escherichia coli” value is “only a minor reduction in the growth”.
